Measurements as given in paper PMC6917776, “Discovery of a chemical probe for PRDM9” (Nature Communications, 2019).
Values joined by “and” are separate entries in the source; they are usually repeats but may differ in a detail not shown here. Identical values can stand only once. Like-named read-outs stand apart in the source and are kept apart here.

Assays:
[1] = molecular target: T1, DNMT3B/3L (Homo sapiens, UniProt Q9UBC3); test: Methyltransferase selectivity assay (filter-based); format: biochemical; conditions: for activity at 1 µM: 1µM compound; for activity at 10 µM / Activity %: 10µM compound; for Activity %: Exp1, Exp2, 10 µM
T1 construct: purchased Structural Genomics Consortium (SGC Toronto) in-house methyltransferase panel
Method: Selectivity against methyltransferases were determined as described previously. Details of the assays are described in the supplementary methods.
Methyltransferase selectivity assay1
The effect of chemical probes and negative controls on the methyltransferase activities of protein, DNA and RNA methyltransferases was tested by radiometric assays using 3H-SAM. […]
The counts per minute (CPM) was measured on a TopCount plate reader. The CPM in the absence of compound or enzyme was defined as 100% activity and background (0%), respectively, for each dataset. […]
For proteins which were tested with nucleosome as substrate such as DOT1L, NSD1, NSD2, NSD3, and ASH1L, or unbiotinylated Poly(2′-deoxyinosinic-2′-deoxycytidylic acid) (Cat# 81349-500UG, Sigma Aldrich) such as DNMT3A/3L, and DNMT3B/3L, a filter-based assay was used. In this assay, a trichloroacetic acid (TCA) protein precipitation protocol was employed. A 10 µL reaction mixture was incubated at 23°C for 1 h, followed by addition of 50 µL of 10% TCA. The mixture was transferred to filter plates (Millipore, Billerica, MA, USA) that were centrifuged at 2000 rpm (Allegra X-15R; Beckman Coulter, Brea, CA, USA) for 2 min. Samples were washed twice with 10% TCA and once with ethanol (180 µL), and centrifuged. After drying, 100 µL MicroScint-O (Perkin Elmer) was added to each well and the plates were centrifuged to remove the liquid. A 70 µL volume of MicroScint-O was added and the CPM was measured with a TopCount plate reader.

[2] = system: HEK293T cells; test: Cell growth, IncuCyte ZOOM cell number; format: cell-based; conditions: for HEK293T cell growth, toxicity (in words): 24 h of treatment; for HEK293T cytotoxicity (in words): 4 days of treatment; for Cell growth (Cell#): technical replicates
Method: HEK293T or MCF7 cells were seeded on 96-well plates and the following day treated with compounds for indicated time. Cell number was determined with Vybrant® DyeCycle™ Green using IncuCyte™ ZOOM live cell imaging device (Essen Bioscence) and analyzed with IncuCyte™ ZOOM (2015A) software.
(top graphs) and MCF7 cells (bottom graph). Cells were treated with compounds for 2 and 4 days or 5 days in case of MCF7. Cell number was measured using IncuCyte™ ZOOM live cell imaging device. The results are MEAN +/- SEM, n=3 (technical replicates). Source data are provided as a Source Data file.
(1 picture or pasted object on this page, not shown here)

[3] = HEK293, 2 day treatement, 10 µM
[4] = HEK293, 4 day treatement, 0.3 µM
[5] = HEK293, 4 day treatement, 10 µM
[6] = Exp1, Exp2, read-out: Activity %

SMILES	activity at 1 µM ([1]; Exp1, Exp2) [%]	activity at 10 µM ([1]; Exp1, Exp2) [%]	Activity % [1] [%]	HEK293T cell growth, toxicity (in words) ([2]; 10 µM)	HEK293T cytotoxicity (in words) ([2]; 10 µM)	Cell growth (Cell#) ([2]; HEK293, 2 day treatement, 1 µM)	Cell growth (Cell#) ([2]; HEK293, 2 day treatement, 3 µM)	Cell growth (Cell#) ([2]; HEK293, 2 day treatement, 5 µM)	Cell growth (Cell#) [2, 3]	Cell growth (Cell#) [2, 4]	Cell growth (Cell#) ([2]; HEK293, 4 day treatement, 1 µM)	Cell growth (Cell#) ([2]; HEK293, 4 day treatement, 3 µM)	Cell growth (Cell#) [2, 5]	activity at 1 µM [1, 6] [%]	activity at 10 µM [1, 6] [%]
COc1cc(OC)cc(-c2noc(N3CCN(C)C4(CCN(c5ccccc5)CC4)C3)n2)c1 [MRK-740 -NC]	101	99	97	–	–	–	–	–	–	–	–	–	–	–	–
COc1cc(OC)cc(-c2noc(N3CCN(C)C4(CCN(c5ccccc5)CC4)C3)n2)c1 [MRK-740-NC]	–	–	–	some toxicity	cytotoxicity was observed	131.284 % control and 117.713 % control and 90.9177 % control	132.069 % control and 120.302 % control and 91.1588 % control	115.543 % control and 108.951 % control and 80.3231 % control	46.5996 % control and 35.6574 % control and 30.4049 % control	101.286 % control and 102.18 % control and 103.656 % control	105.145 % control and 104.341 % control and 101.342 % control	105.432 % control and 102.893 % control and 103.306 % control	42.1082 % control and 39.7636 % control and 39.5419 % control	–	–
COc1cc(OC)cc(-c2noc(N3CCN(C)C4(CCN(c5ccnc(C)c5)CC4)C3)n2)c1 [MRK-740]	–	–	90	some toxicity	cytotoxicity was observed	84.8973 % control and 124.131 % control and 116.53 % control	73.843 % control and 124.215 % control and 124.008 % control	68.7811 % control and 110.358 % control and 122.96 % control	55.0249 % control and 90.6823 % control and 84.1686 % control	115.326 % control and 111.309 % control and 103.491 % control	115.93 % control and 116.134 % control and 111.504 % control	115.346 % control and 109.669 % control and 118.771 % control	47.3939 % control and 45.1607 % control and 39.6851 % control	100	82
